Among the test systems are TK-10 renal; MDA-MB-231 breast; LOX IMVI melanoma; U251 CNS; UO-31 renal; OVCAR-5 ovarian; NCI-H460 lung; NCI/ADR-RES ovarian; SN12C renal; HCC-2998 colon.
Common to all, as to test: growth of human tumour cells (NCI), 48 h

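Protocol summary: plate cells (96-well), add compound at 5 concentrations, incubate 48 h, interpolate endpoints linearly. TGI: total growth inhibition.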

For `CN=C1C=C(/N=C2/C=C(N/C(=C\C#N)C(C)(C)O)OC2(C)C)OC1(C)C`, the TGI in the assay with TK-10 renal is above 100 µM; in the assay on MDA-MB-231 breast, above 100 µM; with LOX IMVI melanoma, above 100 µM; with U251 CNS, above 100 µM; in the assay on UO-31 renal, 82.3 µM; in the assay on OVCAR-5 ovarian, above 100 µM. The TGI with NCI-H460 lung is above 100 µM; with NCI/ADR-RES ovarian, above 62.6 µM; with SN12C renal, above 100 µM; in the assay on HCC-2998 colon, above 100 µM.

Consider `CN(C)c1ccc(/C=C2\N=C(c3ccccc3)N(c3nc4ccc(Sc5ccccc5)cc4[nH]3)C2=O)cc1`, for which the TGI was 81.3 µM with TK-10 renal; above 100 µM with MDA-MB-231 breast; above 100 µM with LOX IMVI melanoma; above 100 µM with U251 CNS; above 100 µM in the assay on UO-31 renal; above 100 µM in the assay on OVCAR-5 ovarian. Also, the TGI is above 100 µM in the assay on NCI-H460 lung, 85.3 µM in the assay with NCI/ADR-RES ovarian, above 100 µM in the assay with SN12C renal and 33.5 µM with HCC-2998 colon.

As to `COc1ccccc1-c1cc(=O)c2cccnc2[nH]1`, the TGI with TK-10 renal, in the assay with MDA-MB-231 breast, with LOX IMVI melanoma, in the assay with U251 CNS, in the assay on UO-31 renal and in the assay on OVCAR-5 ovarian was above 100 µM throughout. For the same compound, the TGI in the assay with NCI-H460 lung, in the assay with NCI/ADR-RES ovarian, in the assay with SN12C renal and in the assay on HCC-2998 colon was above 100 µM throughout.

On to `CC1CC[C@@]2(OC1)OC1C[C@H]3[C@@H]4CC=C5C[C@@H](OC6OC(CO)C(OC7OC(CO)C(O)C(O)C7O)C(O)C6OC6OC(C)C(O)C(O)C6O)CC[C@]5(C)[C@H]4CC[C@]3(C)C1[C@@H]2C` (stereo partly drawn), for which the TGI was 3.73 µM in the assay with TK-10 renal; 0.918 µM with MDA-MB-231 breast; 0.852 µM in the assay on LOX IMVI melanoma; 0.923 µM in the assay on U251 CNS; 0.887 µM in the assay on UO-31 renal; 4.58 µM in the assay on OVCAR-5 ovarian. The TGI was 1.76 µM with NCI-H460 lung, 5.71 µM in the assay on NCI/ADR-RES ovarian, 1.52 µM in the assay on SN12C renal and 0.89 µM in the assay with HCC-2998 colon.

Consider `CC(CSc1nc2c(c(=N)n1-c1ccccc1)c(=S)n(-c1ccccc1)c(=S)n2-c1ccccc1)CN(C)C` (stereo not drawn), for which the TGI with TK-10 renal was 3.07 µM; in the assay on MDA-MB-231 breast, 3.46 µM; with LOX IMVI melanoma, 2.57 µM; in the assay on U251 CNS, 3.28 µM; in the assay with OVCAR-5 ovarian it was 26.8 µM; in the assay on NCI-H460 lung it was 4.14 µM. The TGI in the assay with NCI/ADR-RES ovarian came to 11.8 µM; in the assay on SN12C renal it was 3.55 µM; with HCC-2998 colon it was 2.7 µM.

Take `COc1cc(-c2cc(OC)c(OC)c3ccc(Br)cc23)c2cc(Br)ccc2c1OC`: the TGI with TK-10 renal was 52.7 µM; with MDA-MB-231 breast, 49.5 µM; with LOX IMVI melanoma, 46.6 µM; in the assay on U251 CNS, 37.7 µM; in the assay with UO-31 renal it was 73.7 µM; with OVCAR-5 ovarian it was 39.2 µM. Further, the TGI in the assay on NCI-H460 lung is above 100 µM; in the assay on NCI/ADR-RES ovarian, 90.1 µM; in the assay on SN12C renal, 81.6 µM; in the assay on HCC-2998 colon it was 92 µM.

Regarding `COc1cc(/C=C2\C(=O)N(c3ccc(Cl)cc3)C(c3ccccc3)S2(=O)=O)cc(OC)c1OC` (stereo not drawn), the TGI in the assay on TK-10 renal, in the assay on MDA-MB-231 breast, in the assay on LOX IMVI melanoma, in the assay with U251 CNS, in the assay on UO-31 renal and in the assay on OVCAR-5 ovarian was above 100 µM in each case. The TGI in the assay with NCI-H460 lung, in the assay with NCI/ADR-RES ovarian, in the assay on SN12C renal and in the assay on HCC-2998 colon was above 100 µM in each case.

Regarding `Cc1c(-c2ccccc2)oc(=O)c2ccccc12`, the TGI in the assay with TK-10 renal turned out to be 60.7 µM; in the assay with MDA-MB-231 breast, 36.5 µM; with LOX IMVI melanoma, 40.4 µM; in the assay with U251 CNS, 42.2 µM; in the assay on UO-31 renal, 43.7 µM; in the assay with OVCAR-5 ovarian it was 80.9 µM. The TGI was above 100 µM in the assay with NCI-H460 lung, 75.4 µM in the assay on NCI/ADR-RES ovarian, 38.1 µM in the assay with SN12C renal and 37.8 µM with HCC-2998 colon.

For `O=C(CCCCCCCCC(=O)N1C(=O)CC(=O)N(c2ccc(Cl)cc2)C1=S)N1C(=O)CC(=O)N(c2ccc(Cl)cc2)C1=S`, the TGI in the assay on TK-10 renal, in the assay on MDA-MB-231 breast, with LOX IMVI melanoma, in the assay with U251 CNS, in the assay with UO-31 renal and in the assay on OVCAR-5 ovarian was above 100 µM each time. Also, the TGI with NCI-H460 lung, with NCI/ADR-RES ovarian, with SN12C renal and in the assay on HCC-2998 colon was above 100 µM throughout.

As to `CCOC1OC(C)(C=C(C#N)C#N)CCC1C` (stereo not drawn), the TGI in the assay on TK-10 renal is above 100 µM; in the assay on MDA-MB-231 breast, above 100 µM; with LOX IMVI melanoma, above 75.8 µM; in the assay on U251 CNS, above 100 µM; with UO-31 renal it was 97.7 µM; in the assay on OVCAR-5 ovarian, above 100 µM. In addition, the TGI with NCI-H460 lung was 98.7 µM; in the assay on NCI/ADR-RES ovarian, above 88.7 µM; with SN12C renal it was above 86.6 µM; in the assay with HCC-2998 colon, above 74.3 µM.

Consider `Cc1cc(C)nc(NS(=O)(=O)c2ccc(NC(=O)c3ccc4nc5ccccc5c(Nc5ccc(S(=O)(=O)N=C(N)N)cc5)c4c3)cc2)n1`, for which the TGI in the assay on TK-10 renal, in the assay on MDA-MB-231 breast, in the assay with LOX IMVI melanoma, in the assay with U251 CNS, in the assay with UO-31 renal and in the assay on OVCAR-5 ovarian was above 100 µM each time. Also, the TGI with NCI-H460 lung, in the assay with NCI/ADR-RES ovarian, in the assay on SN12C renal and with HCC-2998 colon was above 100 µM each time.

Turning to `Cc1cc(C)n(C(C)(C(=O)Cc2ccccc2)n2nc(C)cc2C)n1`, the TGI with TK-10 renal, in the assay with MDA-MB-231 breast, in the assay on LOX IMVI melanoma, in the assay with U251 CNS, in the assay with UO-31 renal and in the assay on OVCAR-5 ovarian was above 100 µM in each case. In addition, the TGI in the assay with NCI-H460 lung, in the assay on NCI/ADR-RES ovarian, with SN12C renal and in the assay on HCC-2998 colon was above 100 µM each time.

Take `CN(C)CCCNC(=O)N/N=C/c1ccccn1`: the TGI in the assay with TK-10 renal, with MDA-MB-231 breast, with LOX IMVI melanoma, in the assay with UO-31 renal, with OVCAR-5 ovarian and in the assay with NCI-H460 lung was above 10 µM in each case. The TGI with NCI/ADR-RES ovarian, in the assay on SN12C renal and in the assay on HCC-2998 colon was above 10 µM each time.
